We go through 1 substance from patent US7699801B2, “Advanced genetic vaccines” (priority 1995, dated 2010).

The subject of this test is human carcino embryonic antigen (CEA). As to the kind of experiment: CEA-specific IgG1/IgG2a serum antibody ELISA after particle-mediated DNA immunization. The test is classed as in vivo, mouse. Particulars: Balb/c mice, sera four weeks after treatment. From the text: The adjuvant and the nucleic acid molecule containing the sequence encoding the antigen of interest were co-administered via particle-mediated delivery using a gene gun. The particular antigen used for this example was the human carcino embryonic antigen (“CEA”), a human tumor antigen widely used in experiments investigating cancer therapeutic treatments. […] Without an adjuvant, Th2 type CEA-specific antibodies (IgG1) are detected at levels more than twenty-fold higher than the levels of Th1 type CEA-specific antibodies (IgG2a) in Balb/c mice.
For this protocol, a plasmid construct containing a coding region for the CEA antigen under the control of the cytomegalovirus immediate early promoter (CMV) with the CMV intron A between the promoter and the coding region was used. To form the composition, 64 μg of the plasmid, which was designated WRG7083, in 120 μL of water was added to 32 milligrams of 0.9 micron gold beads in an Eppendorf tube, i.e., 2 μg DNA/mg gold. Next, 13.5 μL of ammonium acetate solution and 135 μL of isopropanol were added, and the tube was vortexed briefly. The mixture was incubated for 15 minutes at −20° C. to precipitate the DNA onto the gold. The DNA coated beads were pelleted by a ten second spin and the supernatants were removed. The gold/DNA pellets were washed four times by vortexing in 1 mL ethanol, microfuging ten seconds, and removing supernatants. […]

Chain of human carcino embryonic antigen (CEA) (P06731 35-676): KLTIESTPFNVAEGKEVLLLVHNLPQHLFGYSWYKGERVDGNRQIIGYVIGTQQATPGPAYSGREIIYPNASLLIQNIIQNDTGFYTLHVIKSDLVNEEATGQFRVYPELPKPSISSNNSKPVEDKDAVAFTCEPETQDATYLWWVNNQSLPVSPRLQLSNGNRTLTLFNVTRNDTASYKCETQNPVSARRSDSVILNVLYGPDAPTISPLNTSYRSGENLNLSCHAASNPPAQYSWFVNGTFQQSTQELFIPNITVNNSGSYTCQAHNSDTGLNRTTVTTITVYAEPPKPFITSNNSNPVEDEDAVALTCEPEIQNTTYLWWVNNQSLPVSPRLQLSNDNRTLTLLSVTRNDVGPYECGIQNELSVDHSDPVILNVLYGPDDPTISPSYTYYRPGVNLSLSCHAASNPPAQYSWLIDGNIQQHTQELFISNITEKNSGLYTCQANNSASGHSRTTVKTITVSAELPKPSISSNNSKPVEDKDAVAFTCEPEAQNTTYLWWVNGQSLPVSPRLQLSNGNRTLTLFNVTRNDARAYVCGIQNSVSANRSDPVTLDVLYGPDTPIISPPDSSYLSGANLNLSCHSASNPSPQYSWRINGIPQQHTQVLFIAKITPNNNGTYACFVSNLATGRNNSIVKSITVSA

Regarding monophosphoryl lipid A [MPL], the “ratio of IgG1 to IgG2a CEA-specific antibodies” value reads like this: (0.2 mg/mL MPL on WRG7083 DNA-coated gold particles, gene gun delivery) 4.5; (MPL stock swabbed on skin prior to gene gun delivery of WRG7083 DNA) “about 4.0”.
